Assay [1] is described as follows: Inhibition of HIF-1 in human deferoxamine treated HCT-116 cells expressing HRE-bla gene pretreated for 30 mins before deferoxamine challenge measured after 24 hrs by fluorometric analysis. Format: cell-based.
The target of assay [2] is Cytochrome P450 2C9 (Homo sapiens, UniProt P11712). Put plainly: Inhibition of CYP2C9 after 30 mins by luminescence assay. It counts as ADME.
Chain of Cytochrome P450 2C9 (P11712 whole entry): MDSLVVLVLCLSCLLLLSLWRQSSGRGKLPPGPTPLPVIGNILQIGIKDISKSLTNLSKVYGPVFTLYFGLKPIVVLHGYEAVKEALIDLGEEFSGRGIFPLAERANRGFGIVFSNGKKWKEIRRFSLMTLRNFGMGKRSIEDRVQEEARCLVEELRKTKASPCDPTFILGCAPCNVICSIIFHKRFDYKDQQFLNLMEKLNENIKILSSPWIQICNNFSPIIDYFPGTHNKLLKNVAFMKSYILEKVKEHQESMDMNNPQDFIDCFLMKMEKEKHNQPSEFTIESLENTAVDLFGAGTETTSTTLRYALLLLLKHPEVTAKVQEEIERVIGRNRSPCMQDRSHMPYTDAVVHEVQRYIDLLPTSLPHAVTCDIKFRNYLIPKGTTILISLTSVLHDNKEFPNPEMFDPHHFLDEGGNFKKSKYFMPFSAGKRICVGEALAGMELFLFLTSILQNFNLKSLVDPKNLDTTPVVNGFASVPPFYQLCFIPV

As for `COC(=O)c1ccc(C)c(NS(=O)(=O)c2ccc(NC(C)=O)cc2)c1`, the negative-log IC50 (pIC50) in assay [1] is recorded as 4.7. This compound also showed an EC50 in assay [2] of 0.251 µM.
The matching figures for `COC(=O)c1ccc(C)c(NS(=O)(=O)c2ccc(OC)cc2)c1`: 7.2 and 3.98 µM.
For the compound `COC(=O)c1ccc(C)c(NS(=O)(=O)c2ccc(OC)c(OC)c2)c1`, the pIC50 in assay [1] is less than 5. Besides, a half-maximal effect in assay [2] (EC50) was put at 2.51 µM.
On to `COC(=O)c1ccc(OC)c(NS(=O)(=O)c2ccc(OC)cc2)c1`, for which the pIC50 in assay [1] was 5.5. This compound also had a half-maximal effective concentration (EC50) in assay [2] of 39.8 µM.
The matching figures for `COC(=O)c1ccc(C)c(N(C)S(=O)(=O)c2ccc(C)cc2)c1`: 5.8 and 15.8 µM.
The matching figures for `COC(=O)c1ccc(C)c(N(C)S(=O)(=O)c2ccc(OC)cc2)c1`: 6.2 and 25.1 µM.
The matching figures for `COC(=O)c1ccc2c(c1)N(S(=O)(=O)c1ccc(C)cc1)CCO2`: 7 and 3.98 µM.
As to `COC(=O)c1ccc(C)c(NS(=O)(=O)c2ccc(C)cc2)c1`, the pIC50 in assay [1] was 7.4. The compound further showed an EC50 in assay [2] of 1.58 µM.

For the origin of these results see ChEMBL document CHEMBL1781901, “Toluidinesulfonamide hypoxia-induced factor 1 inhibitors: alleviating drug-drug interactions through use of PubChem data and comparative molecular field analysis guided synthesis” (J Med Chem, 2011).
